Assay results: paper PMC6272185 (Molecules, 2015)
≈ marks a conversion by molar mass, not a printed value. Read-outs that look alike come from different tables or passages of the source.

What was measured:
[1] = test system: NO production by LPS-stimulated RAW 264.7 macrophages; assay: Inhibition of NO production by LPS-stimulated macrophages (Griess); assay type: cell-based, murine; details: mean ± SD, n = 3
[2] = test system: PGE2 production by LPS-stimulated RAW 264.7 macrophages; assay: Inhibition of PGE2 production by LPS-stimulated macrophages (ELISA); assay type: cell-based, murine; details: for IC50: Mus musculus, RAW264.7, 24 h, read-out: IC50 PGE2; for prostaglandin (PGE2) value: only LPS-treated cells 436.0 ± 5.8 pg/mL
Protocol: (§1) Murine RAW 264.7 macrophage cell line (American Type Culture Collection, Manassas, VA, USA), was cultured in Dulbecco’s modified Eagle’s medium (DMEM-F12) supplemented with 10% Fetal Bovine Serum (FBS) and gentamicin (50 µg/mL) in 5% CO2 atmosphere at 37 °C. For experiments, the cells were seeded in 96-well plates (1 × 10^5 cells/well) and incubated for 24 h at 37 °C. For macrophage stimulation, the cell cultures were treated with LPS (1 µg/mL) and incubated for additional 24 h in the presence or absence of the chalcone samples (samples 1–41) that were used at concentrations of 100, 20, 4 and 0.8 µg/mL. In some experiments, a nitric oxide (NO) inhibitor, L-NMMA (20 μg/mL), was used as a positive control of NO inhibition, and a non-steroidal anti-inflammatory drug indomethacin, known to inhibit production of prostaglandins, was used as a positive control of PGE2 inhibition.
(§2) The frozen culture supernatants samples were thawed and immediately analyzed using commercially available enzyme-linked immunosorbent assay (ELISA) kits to measure TNF-α, IL-1β (BD Biosciences) and PGE2 (R&D Systems, Minneapolis, MN, USA), according to the manufacturer’s instructions. Standard curves for each mediator were generated using reference cytokine concentrations supplied by the manufacturer. Nitric oxide (NO) generation was assessed by the Griess method to measure nitrites, which are stable breakdown NO products.

M. bovis BCG = assay: microbe, parasite or virus in culture; assay type: cell-based, Mycobacterium bovis BCG; details: Mycobacterium tuberculosis variant bovis BCG, BCG, 168 h; for MIC50: read-out: MIC50 M. bovis BCG; for MIC90: read-out: MIC90 M. bovis BCG
[3] = test system: TNF-α production by LPS-stimulated RAW 264.7 macrophages; assay: Inhibition of TNF-α production by LPS-stimulated macrophages (ELISA); assay type: cell-based, murine; details: Mus musculus, read-out: IC50 TNF-α
[4] = Macrophage cytotoxicity, LDH release assay; assay type: cell-based, murine; details: mouse, RAW 264.7 macrophages stimulated with LPS; LPS-stimulated RAW 264.7, LDH release; mean ± SD, n = 3
[5] = test system: IL-1β production by LPS-stimulated RAW 264.7 macrophages; assay: Inhibition of IL-1β production by LPS-stimulated macrophages (ELISA); assay type: cell-based, murine; details: Mus musculus, RAW264.7, 24 h, read-out: IC50 IL-1β
Protocol: as §1, §2

M. tuberculosis H37Rv = assay: microbe, parasite or virus in culture; assay type: cell-based, Mycobacterium tuberculosis; details: Mycobacterium tuberculosis
M. tuberculosis M299 = assay: microbe, parasite or virus in culture; assay type: cell-based, Mycobacterium tuberculosis; details: Mycobacterium tuberculosis, M299, 120 h
[6] = Mus musculus, RAW264.7, 24 h, LPS (1 µg/mL)-stimulated RAW 264.7, 24 h, read-out: IC50 NO
[7] = RAW264.7, LPS (1 µg/mL)-stimulated RAW 264.7, 24 h, mean ± SD, n = 3
[8] = Mus musculus, RAW264.7, 24 h, read-out: IC50 NO, LPS (1 µg/mL)-stimulated RAW 264.7, 24 h
[9] = H37RV, 120 h, read-out: MIC50 M. tuberculosis H37Rv

In the case of `Cc1ccc(C(=O)/C=C/c2ccc3c(c2)OCO3)cc1` [Chalcone 20], the IC50 [1, 6] is reported as 30.1 ± 1.2 µM, the IC50 [2] is reported as 147.4 ± 1.2 µM and the MIC50 (M. bovis BCG) is reported as over 376 µM. It also gave an MIC90 (M. bovis BCG) of over 376 µM, an IC50 [3, 7] of over 376 µM and an IC50 [4] of over 376 µM. It also gave an IC50 [5] of over 376 µM.
For `Cc1ccc(C(=O)/C=C/c2ccccc2)cc1` [Chalcone 16], the IC50 [1, 6] was over 450 µM, the MIC50 (M. bovis BCG) was over 450 µM and the MIC90 (M. bovis BCG) was over 450 µM. The IC50 [3, 7] was over 450 µM and the IC50 [4] was over 450 µM.
Work on `COc1ccc(C(=O)/C=C/c2ccc3c(c2)OCO3)cc1` [Chalcone 28] yielded an IC50 ([1]; LPS (1 µg/mL)-stimulated RAW 264.7, 24 h, read-out: IC50 NO) of 14.9 ± 4.1 µM, an IC50 [1, 8] of under 21 µM and an IC50 [2] of 22.1 ± 0.63 µM. For the same compound, the MIC50 (M. bovis BCG) was over 354 µM, the MIC90 (M. bovis BCG) was over 354 µM and the IC50 [3, 7] was over 354 µM. It also gave an IC50 [4] of over 354 µM and an IC50 [5] of over 354 µM.
`COc1ccc(C(=O)/C=C/c2ccc(N(C)C)cc2)cc1` [Chalcone 27] gave an IC50 [1, 6] of 44.6 ± 5.2 µM, an MIC50 (M. bovis BCG) of 309 ± 5 µM (≈ 86.9 µg/mL) and an MIC90 (M. bovis BCG) of over 355 µM. For the same compound, the IC50 [3, 7] was over 355 µM and the IC50 [4] was 226 ± 3.5 µM.
For `COc1ccc(/C=C/C(=O)c2ccc(Br)cc2)cc1` [Chalcone 13], the IC50 [1, 6] was 52.9 ± 3.6 µM, the MIC50 (M. bovis BCG) was 221 ± 3.6 µM (≈ 70 µg/mL) and the MIC90 (M. bovis BCG) was over 315 µM. The IC50 [3, 7] was over 315 µM and the IC50 [4] was over 315 µM.
In the case of `COc1ccc(/C=C/C(=O)c2ccccc2)cc1` [Chalcone 6], the IC50 [1, 8] is reported as over 420 µM, the IC50 ([3]; RAW264.7, 24 h) is reported as over 420 µM and the IC50 [4] is reported as over 420 µM.
With `O=C(/C=C/c1ccc([N+](=O)[O-])cc1)c1ccccc1` [Chalcone 37] the IC50 [1, 6] was 58.6 ± 4.5 µM, the IC50 [2] was 322 ± 3.7 µM and the MIC50 (M. bovis BCG) was over 395 µM. For the same compound, the MIC90 (M. bovis BCG) was over 395 µM, the IC50 [3, 7] was over 395 µM and the IC50 [4] was over 395 µM. It also gave an IC50 [5] of over 395 µM.
`Cc1ccc(C(=O)/C=C/c2ccc(Cl)cc2)cc1` [Chalcone 18] showed an IC50 [1, 6] of 150 ± 3.8 µM, an MIC50 (M. bovis BCG) of 71.3 ± 4.8 µM (≈ 18.3 µg/mL) and an MIC90 (M. bovis BCG) of 323 ± 7.1 µM (≈ 83 µg/mL). It also gave an IC50 [3, 7] of over 390 µM and an IC50 [4] of 304 ± 4.2 µM.
`COc1ccc(/C=C/C(=O)c2ccc(C)cc2)cc1OC` [Chalcone 22] showed an IC50 [1, 6] of over 354 µM, an MIC50 (M. bovis BCG) of over 354 µM and an MIC90 (M. bovis BCG) of over 354 µM. The IC50 [3, 7] was over 354 µM and the IC50 [4] was over 354 µM.
With `CO[C@H]1/C=C/O[C@@]2(C)Oc3c(C)c(O)c4c(O)c(c(/C=N/N5CCN(C)CC5)c(O)c4c3C2=O)NC(=O)/C(C)=C\C=C\[C@H](C)[C@H](O)[C@@H](C)[C@@H](O)[C@@H](C)[C@H](OC(C)=O)[C@@H]1C` [Rifampicin, rifampicin, reference compound] the MIC90 (M. tuberculosis H37Rv; H37RV, 120 h) was 0.15 ± 0.08 µM (≈ 0.123 µg/mL), the MIC50 (M. tuberculosis H37Rv; [9]) was 0.11 ± 0.02 µM (≈ 0.0905 µg/mL) and the MIC50 (M. bovis BCG) was 0.01 ± 0.03 µM (≈ 0.00823 µg/mL). The MIC90 (M. bovis BCG) was 0.2 ± 0.01 µM (≈ 0.165 µg/mL), the MIC50 (M. tuberculosis M299) was 0.2 ± 0.18 µM (≈ 0.165 µg/mL) and the MIC90 (M. tuberculosis M299) was 3.3 ± 0.16 µM (≈ 2.72 µg/mL).
With `COc1ccc(C(=O)/C=C/c2ccc(Cl)cc2)cc1` [Chalcone 26] the IC50 [1, 6] was 25.3 ± 3.9 µM, the IC50 [2] was 57.7 ± 1.9 µM and the MIC50 (M. bovis BCG) was 91.2 ± 5 µM (≈ 24.9 µg/mL). The MIC90 (M. bovis BCG) was 287 ± 7.8 µM (≈ 78.2 µg/mL), the IC50 [3, 7] was over 367 µM and the IC50 [4] was over 367 µM. For the same compound, the IC50 [5] was over 367 µM.
With `O=C(/C=C/c1ccc(F)cc1)c1ccccc1Cl` [Chalcone 32] the IC50 [1, 6] was over 384 µM, the MIC50 (M. bovis BCG) was over 384 µM and the MIC90 (M. bovis BCG) was over 384 µM. The IC50 [3, 7] was over 384 µM and the IC50 [4] was over 384 µM.
For `Cc1ccc(C(=O)/C=C/c2ccc(F)cc2)cc1` [Chalcone 17], the IC50 [1, 6] was 30.8 ± 4.5 µM, the MIC90 (M. tuberculosis H37Rv; H37RV, 120 h) was over 416 µM and the MIC50 (M. tuberculosis H37Rv; [9]) was 63.8 ± 6.2 µM (≈ 15.3 µg/mL). It also gave an MIC50 (M. tuberculosis H37Rv; Table 5, same values as M. tuberculosis H37Rv in Table 3, read-out: MIC50) of 63.8 ± 6.2 µM (≈ 15.3 µg/mL), an IC50 [2] of over 417 µM and an MIC50 (M. bovis BCG) of 61.5 ± 7.6 µM (≈ 14.8 µg/mL). For the same compound, the MIC90 (M. bovis BCG) was 388 ± 7.3 µM (≈ 93.3 µg/mL), the IC50 [3, 7] was over 416 µM and the IC50 [4] was 290 ± 4.3 µM. For the same compound, the IC50 [5] was over 416 µM.
In the case of `COc1ccc2c(c1)c(CC(=O)O)c(C)n2C(=O)c1ccc(Cl)cc1` [indomethacin, reference compound], the “prostaglandin (PGE2) value” ([2]; 0.0004 µg/mL) is reported as 340.7 ± 1.1 pg/mL, the “prostaglandin (PGE2) value” ([2]; 0.004 µg/mL) is reported as 271.6 ± 2.6 pg/mL and the “prostaglandin (PGE2) value” ([2]; 0.04 µg/mL) is reported as 171.8 ± 1.2 pg/mL. For the same compound, the “prostaglandin (PGE2) value” ([2]; 0.2 µg/mL) was 11.8 ± 1.9 pg/mL.
Work on `Cc1ccc(C(=O)/C=C/c2ccc([N+](=O)[O-])cc2)cc1` [Chalcone 39] yielded an IC50 [1, 6] of 114 ± 4.8 µM, an MIC90 (M. tuberculosis H37Rv; H37RV, 120 h) of over 373 µM and an MIC50 (M. tuberculosis H37Rv; [9]) of over 373 µM. It also gave an MIC50 (M. bovis BCG) of 28.1 ± 5.4 µM (≈ 7.51 µg/mL), an MIC90 (M. bovis BCG) of 344 ± 6.3 µM (≈ 92 µg/mL) and an IC50 [3, 7] of over 373 µM. For the same compound, the IC50 [4] was 329 ± 3.9 µM.
